Test results taken from article PMC8185074, “Anchor extension: a structure-guided approach to design cyclic peptides targeting enzyme active sites” (Nature Communications, 2021).
Peptide text beside a SMILES is read from it.

Columns and labels:
Format in all cases: biochemical
HDAC3 = target: T1, HDAC3 (Homo sapiens, UniProt O15379); assay: HDAC3 inhibition, full IC50 measurement (Reaction Biology; fluorogenic p53 peptide RHKK(Ac)AMC)
T1 construct: purchased Reaction Biology Corporation (assay run by the CRO)
Method in brief: (§1)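 Reaction: enzyme plus acoustically dispensed peptide inhibitor, 50 μM RHKK(Ac)AMC substrate, pH 8.0 Tris buffer with BSA and 1% DMSO, 1 h, 30 °C. Duplicates averaged.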

HDAC2 [1] = target: T2, HDAC2 (Homo sapiens, UniProt Q92769); assay: HDAC2 inhibition, full IC50 measurement (Reaction Biology; fluorogenic p53 peptide RHKK(Ac)AMC)
T2 construct: purchased Reaction Biology Corporation (assay run by the CRO)
Method in brief: as §1

HDAC2 [2] = target: T2, HDAC2; assay: Initial HDAC2 IC50 estimate (BPS Biosciences HDAC fluorogenic assay kit); settings: Supplementary Dataset 2; read-out: HDAC2 activity (initial activity)
Method in brief: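 Inhibition measured by kit-based fluorogenic HDAC activity assays, with each point in duplicate or triplicate. Values come from a full 1 µM–100 pM series (1:10 steps) or are range estimates from just 20 nM and 200 nM.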

T2 sequence (Q92769 whole entry): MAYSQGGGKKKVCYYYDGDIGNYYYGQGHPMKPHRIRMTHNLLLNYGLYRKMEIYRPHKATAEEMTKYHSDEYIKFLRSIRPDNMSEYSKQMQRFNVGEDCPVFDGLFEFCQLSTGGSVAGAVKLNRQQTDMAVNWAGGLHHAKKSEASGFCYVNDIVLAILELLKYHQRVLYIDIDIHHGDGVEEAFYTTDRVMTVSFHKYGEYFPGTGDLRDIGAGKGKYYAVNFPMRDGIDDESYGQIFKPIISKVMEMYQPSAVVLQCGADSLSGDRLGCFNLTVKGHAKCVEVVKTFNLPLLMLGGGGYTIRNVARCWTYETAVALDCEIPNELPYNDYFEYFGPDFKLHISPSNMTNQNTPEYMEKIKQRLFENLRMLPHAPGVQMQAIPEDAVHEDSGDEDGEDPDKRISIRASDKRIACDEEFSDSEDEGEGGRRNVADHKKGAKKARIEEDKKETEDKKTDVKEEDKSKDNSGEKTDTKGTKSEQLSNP
T1 sequence (O15379 whole entry): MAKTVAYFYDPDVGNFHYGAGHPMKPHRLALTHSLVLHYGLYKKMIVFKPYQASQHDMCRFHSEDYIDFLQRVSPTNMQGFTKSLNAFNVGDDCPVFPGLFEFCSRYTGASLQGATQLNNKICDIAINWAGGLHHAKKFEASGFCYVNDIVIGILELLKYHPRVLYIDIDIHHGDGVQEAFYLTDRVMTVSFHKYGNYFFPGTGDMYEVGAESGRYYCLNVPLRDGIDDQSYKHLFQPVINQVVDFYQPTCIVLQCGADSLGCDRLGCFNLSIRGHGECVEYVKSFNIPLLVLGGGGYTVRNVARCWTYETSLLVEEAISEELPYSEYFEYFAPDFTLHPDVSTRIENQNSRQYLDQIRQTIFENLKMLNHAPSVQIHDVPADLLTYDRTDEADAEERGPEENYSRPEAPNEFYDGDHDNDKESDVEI
T1 sequence (Q9Y618 395-489 partner limits assumed): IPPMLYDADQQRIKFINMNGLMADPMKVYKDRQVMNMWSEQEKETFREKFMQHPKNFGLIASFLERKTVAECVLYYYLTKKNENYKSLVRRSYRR

With `N=C(N)NCCC[C@H]1NC(=O)[C@@H]2CCCN2C(=O)[C@H](CO)NC(=O)[C@@H](Cc2c[nH]cn2)NC(=O)[C@H](CCCCCS)NC(=O)[C@H](CCCCN)NC(=O)[C@H](Cc2ccc(O)cc2)NC(=O)[C@H]2CCCN2C(=O)[C@@H](CCC(N)=O)NC1=O` [des3.1.0, SHA-dHis-Ser-Pro-dArg-dGln-dPro-Tyr-Lys] (HELM PEPTIDE1{K.[O=C([C@H](CCCCCS)N[*:1])[*:2]].[dH].S.P.[dR].[dQ].[dP].Y}$PEPTIDE1,PEPTIDE1,1:R1-9:R2$$$V2.0) the “HDAC3 activity raw data (signal)” value (HDAC3; Conc. 1.00E-05 M, t1) was 46436, the “HDAC3 activity raw data (signal)” value (HDAC3; Conc. 1.00E-05 M, t2) was 68834 and the “HDAC3 activity raw data (signal)” value (HDAC3; Conc. 1.11E-06 M, t1) was 407446. The “HDAC3 activity raw data (signal)” value (HDAC3; Conc. 1.11E-06 M, t2) was 414242, the “HDAC3 activity raw data (signal)” value (HDAC3; Conc. 1.23E-07 M, t1) was 842197 and the “HDAC3 activity raw data (signal)” value (HDAC3; Conc. 1.23E-07 M, t2) was 849517. The “HDAC3 activity raw data (signal)” value (HDAC3; Conc. 1.37E-08 M, t1) was 932057, the “HDAC3 activity raw data (signal)” value (HDAC3; Conc. 1.37E-08 M, t2) was 998355 and the “HDAC3 activity raw data (signal)” value (HDAC3; Conc. 1.52E-09 M, t1) was 936917. The “HDAC3 activity raw data (signal)” value (HDAC3; Conc. 1.52E-09 M, t2) was 1040178, the “HDAC3 activity raw data (signal)” value (HDAC3; Conc. 3.33E-06 M, t1) was 127237 and the “HDAC3 activity raw data (signal)” value (HDAC3; Conc. 3.33E-06 M, t2) was 217535. The “HDAC3 activity raw data (signal)” value (HDAC3; Conc. 3.70E-07 M, t1) was 580195, the “HDAC3 activity raw data (signal)” value (HDAC3; Conc. 3.70E-07 M, t2) was 672322 and the “HDAC3 activity raw data (signal)” value (HDAC3; Conc. 4.12E-08 M, t1) was 931839. For the same compound, the “HDAC3 activity raw data (signal)” value (HDAC3; Conc. 4.12E-08 M, t2) was 959771, the “HDAC3 activity raw data (signal)” value (HDAC3; Conc. 4.57E-09 M, t1) was 999086 and the “HDAC3 activity raw data (signal)” value (HDAC3; Conc. 4.57E-09 M, t2) was 1037845. The “HDAC3 activity raw data (signal)” value (HDAC3; Conc. 5.08E-10 M, t1) was 932822, the “HDAC3 activity raw data (signal)” value (HDAC3; Conc. 5.08E-10 M, t2) was 1013267 and the “HDAC2 activity raw data (signal)” value (HDAC2 [1]; Conc. 1.00E-05 M, t1) was 59408. For the same compound, the “HDAC2 activity raw data (signal)” value (HDAC2 [1]; Conc. 1.00E-05 M, t2) was 72667, the “HDAC2 activity raw data (signal)” value (HDAC2 [1]; Conc. 1.11E-06 M, t1) was 433904 and the “HDAC2 activity raw data (signal)” value (HDAC2 [1]; Conc. 1.11E-06 M, t2) was 343376. For the same compound, the “HDAC2 activity raw data (signal)” value (HDAC2 [1]; Conc. 1.23E-07 M, t1) was 657996, the “HDAC2 activity raw data (signal)” value (HDAC2 [1]; Conc. 1.23E-07 M, t2) was 873444 and the “HDAC2 activity raw data (signal)” value (HDAC2 [1]; Conc. 1.37E-08 M, t1) was 729280. The “HDAC2 activity raw data (signal)” value (HDAC2 [1]; Conc. 1.37E-08 M, t2) was 826208, the “HDAC2 activity raw data (signal)” value (HDAC2 [1]; Conc. 1.52E-09 M, t1) was 589537 and the “HDAC2 activity raw data (signal)” value (HDAC2 [1]; Conc. 1.52E-09 M, t2) was 821627. The “HDAC2 activity raw data (signal)” value (HDAC2 [1]; Conc. 3.33E-06 M, t1) was 217345, the “HDAC2 activity raw data (signal)” value (HDAC2 [1]; Conc. 3.33E-06 M, t2) was 176595 and the “HDAC2 activity raw data (signal)” value (HDAC2 [1]; Conc. 3.70E-07 M, t1) was 565181. For the same compound, the “HDAC2 activity raw data (signal)” value (HDAC2 [1]; Conc. 3.70E-07 M, t2) was 599514, the “HDAC2 activity raw data (signal)” value (HDAC2 [1]; Conc. 4.12E-08 M, t1) was 715436 and the “HDAC2 activity raw data (signal)” value (HDAC2 [1]; Conc. 4.12E-08 M, t2) was 918076. For the same compound, the “HDAC2 activity raw data (signal)” value (HDAC2 [1]; Conc. 4.57E-09 M, t1) was 697486, the “HDAC2 activity raw data (signal)” value (HDAC2 [1]; Conc. 4.57E-09 M, t2) was 737052 and the “HDAC2 activity raw data (signal)” value (HDAC2 [1]; Conc. 5.08E-10 M, t1) was 616136. The “HDAC2 activity raw data (signal)” value (HDAC2 [1]; Conc. 5.08E-10 M, t2) was 674996 and the IC50 (HDAC2 [2]) was 1400 nM.
With `N=C(N)NCCC[C@@H]1NC(=O)[C@H](Cc2c[nH]c3ccccc23)NC(=O)[C@H](CC(=O)O)NC(=O)[C@@H](CO)NC(=O)[C@H](Cc2c[nH]c3ccccc23)NC(=O)[C@H](CCCCCS)NC(=O)[C@H](CCC(N)=O)NC1=O` [des4.1.0, SHA-Trp-dSer-Asp-Trp-Arg-Gln] (HELM PEPTIDE1{D.W.R.Q.[O=C([C@H](CCCCCS)N[*:1])[*:2]].W.[dS]}$PEPTIDE1,PEPTIDE1,1:R1-7:R2$$$V2.0) the “HDAC3 activity raw data (signal)” value (HDAC3; Conc. 1.00E-05 M, t1) was -1388, the “HDAC3 activity raw data (signal)” value (HDAC3; Conc. 1.00E-05 M, t2) was 157 and the “HDAC3 activity raw data (signal)” value (HDAC3; Conc. 1.11E-06 M, t1) was 49544. For the same compound, the “HDAC3 activity raw data (signal)” value (HDAC3; Conc. 1.11E-06 M, t2) was 53052, the “HDAC3 activity raw data (signal)” value (HDAC3; Conc. 1.23E-07 M, t1) was 403506 and the “HDAC3 activity raw data (signal)” value (HDAC3; Conc. 1.23E-07 M, t2) was 392664. For the same compound, the “HDAC3 activity raw data (signal)” value (HDAC3; Conc. 1.37E-08 M, t1) was 878874, the “HDAC3 activity raw data (signal)” value (HDAC3; Conc. 1.37E-08 M, t2) was 905094 and the “HDAC3 activity raw data (signal)” value (HDAC3; Conc. 1.52E-09 M, t1) was 1051534. The “HDAC3 activity raw data (signal)” value (HDAC3; Conc. 1.52E-09 M, t2) was 1009763, the “HDAC3 activity raw data (signal)” value (HDAC3; Conc. 3.33E-06 M, t1) was 16525 and the “HDAC3 activity raw data (signal)” value (HDAC3; Conc. 3.33E-06 M, t2) was 4898. For the same compound, the “HDAC3 activity raw data (signal)” value (HDAC3; Conc. 3.70E-07 M, t1) was 191695, the “HDAC3 activity raw data (signal)” value (HDAC3; Conc. 3.70E-07 M, t2) was 162137 and the “HDAC3 activity raw data (signal)” value (HDAC3; Conc. 4.12E-08 M, t1) was 681441. For the same compound, the “HDAC3 activity raw data (signal)” value (HDAC3; Conc. 4.12E-08 M, t2) was 656036, the “HDAC3 activity raw data (signal)” value (HDAC3; Conc. 4.57E-09 M, t1) was 1007447 and the “HDAC3 activity raw data (signal)” value (HDAC3; Conc. 4.57E-09 M, t2) was 1022661. For the same compound, the “HDAC3 activity raw data (signal)” value (HDAC3; Conc. 5.08E-10 M, t1) was 1094681, the “HDAC3 activity raw data (signal)” value (HDAC3; Conc. 5.08E-10 M, t2) was 1129520 and the “HDAC2 activity raw data (signal)” value (HDAC2 [1]; Conc. 1.00E-05 M, t1) was -10519. For the same compound, the “HDAC2 activity raw data (signal)” value (HDAC2 [1]; Conc. 1.00E-05 M, t2) was -26565, the “HDAC2 activity raw data (signal)” value (HDAC2 [1]; Conc. 1.11E-06 M, t1) was 79842 and the “HDAC2 activity raw data (signal)” value (HDAC2 [1]; Conc. 1.11E-06 M, t2) was 48499. For the same compound, the “HDAC2 activity raw data (signal)” value (HDAC2 [1]; Conc. 1.23E-07 M, t1) was 872533, the “HDAC2 activity raw data (signal)” value (HDAC2 [1]; Conc. 1.23E-07 M, t2) was 734242 and the “HDAC2 activity raw data (signal)” value (HDAC2 [1]; Conc. 1.37E-08 M, t1) was 1715554. For the same compound, the “HDAC2 activity raw data (signal)” value (HDAC2 [1]; Conc. 1.37E-08 M, t2) was 1674658, the “HDAC2 activity raw data (signal)” value (HDAC2 [1]; Conc. 1.52E-09 M, t1) was 1955635 and the “HDAC2 activity raw data (signal)” value (HDAC2 [1]; Conc. 1.52E-09 M, t2) was 1838943. The “HDAC2 activity raw data (signal)” value (HDAC2 [1]; Conc. 3.33E-06 M, t1) was 20013, the “HDAC2 activity raw data (signal)” value (HDAC2 [1]; Conc. 3.33E-06 M, t2) was 16353 and the “HDAC2 activity raw data (signal)” value (HDAC2 [1]; Conc. 3.70E-07 M, t1) was 220224. The “HDAC2 activity raw data (signal)” value (HDAC2 [1]; Conc. 3.70E-07 M, t2) was 182542, the “HDAC2 activity raw data (signal)” value (HDAC2 [1]; Conc. 4.12E-08 M, t1) was 1421192 and the “HDAC2 activity raw data (signal)” value (HDAC2 [1]; Conc. 4.12E-08 M, t2) was 1355422. The “HDAC2 activity raw data (signal)” value (HDAC2 [1]; Conc. 4.57E-09 M, t1) was 1969255, the “HDAC2 activity raw data (signal)” value (HDAC2 [1]; Conc. 4.57E-09 M, t2) was 1793366 and the “HDAC2 activity raw data (signal)” value (HDAC2 [1]; Conc. 5.08E-10 M, t1) was 1865278. The “HDAC2 activity raw data (signal)” value (HDAC2 [1]; Conc. 5.08E-10 M, t2) was 1807628 and the IC50 (HDAC2 [2]) was 100 nM.
